According to paper PMC3128679 (Bioorganic & medicinal chemistry letters, 2011):

What was measured:
Format in all cases: biochemical
PTP1B = target: T1, PTP1B (Homo sapiens, UniProt P18031); experiment: PTP1B inhibition assay
T1 sequence (P18031 1-435): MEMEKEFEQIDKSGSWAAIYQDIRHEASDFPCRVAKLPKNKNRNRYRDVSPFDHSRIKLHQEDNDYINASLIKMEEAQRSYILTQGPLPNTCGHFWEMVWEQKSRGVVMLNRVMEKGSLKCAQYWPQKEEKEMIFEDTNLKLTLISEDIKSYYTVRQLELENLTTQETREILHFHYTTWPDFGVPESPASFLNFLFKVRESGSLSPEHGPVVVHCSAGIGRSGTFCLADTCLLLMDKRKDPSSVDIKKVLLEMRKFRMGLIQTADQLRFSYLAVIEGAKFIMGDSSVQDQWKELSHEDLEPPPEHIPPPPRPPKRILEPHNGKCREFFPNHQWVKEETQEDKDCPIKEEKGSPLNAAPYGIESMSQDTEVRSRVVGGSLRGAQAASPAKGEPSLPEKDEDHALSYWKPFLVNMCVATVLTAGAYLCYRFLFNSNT

SHP1 = SHP1 (Homo sapiens, UniProt P29350); experiment: SHP1 inhibition assay
SHP1, sequence (P29350 whole entry): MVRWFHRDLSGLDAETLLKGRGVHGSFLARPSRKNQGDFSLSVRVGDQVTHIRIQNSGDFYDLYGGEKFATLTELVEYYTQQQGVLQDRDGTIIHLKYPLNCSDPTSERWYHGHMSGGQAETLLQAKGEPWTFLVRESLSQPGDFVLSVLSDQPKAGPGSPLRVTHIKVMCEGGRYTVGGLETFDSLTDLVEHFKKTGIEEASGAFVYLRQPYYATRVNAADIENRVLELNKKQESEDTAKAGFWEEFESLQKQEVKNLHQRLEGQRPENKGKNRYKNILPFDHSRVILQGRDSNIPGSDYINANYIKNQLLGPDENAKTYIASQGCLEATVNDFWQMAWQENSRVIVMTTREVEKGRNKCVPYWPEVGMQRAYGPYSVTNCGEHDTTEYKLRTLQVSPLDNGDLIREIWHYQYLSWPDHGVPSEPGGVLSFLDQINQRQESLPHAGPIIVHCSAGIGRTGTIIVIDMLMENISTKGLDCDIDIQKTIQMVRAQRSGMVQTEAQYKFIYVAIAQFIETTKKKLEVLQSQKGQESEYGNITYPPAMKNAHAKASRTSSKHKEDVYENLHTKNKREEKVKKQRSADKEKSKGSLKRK

SHP2 [1] = target: T2, SHP2 (Homo sapiens, UniProt Q06124); experiment: in vitro SHP2 inhibition assay; settings: for SHP2 inhibition at 1 mM: 1 mM compound concentration
T2 sequence (Q06124 1-593): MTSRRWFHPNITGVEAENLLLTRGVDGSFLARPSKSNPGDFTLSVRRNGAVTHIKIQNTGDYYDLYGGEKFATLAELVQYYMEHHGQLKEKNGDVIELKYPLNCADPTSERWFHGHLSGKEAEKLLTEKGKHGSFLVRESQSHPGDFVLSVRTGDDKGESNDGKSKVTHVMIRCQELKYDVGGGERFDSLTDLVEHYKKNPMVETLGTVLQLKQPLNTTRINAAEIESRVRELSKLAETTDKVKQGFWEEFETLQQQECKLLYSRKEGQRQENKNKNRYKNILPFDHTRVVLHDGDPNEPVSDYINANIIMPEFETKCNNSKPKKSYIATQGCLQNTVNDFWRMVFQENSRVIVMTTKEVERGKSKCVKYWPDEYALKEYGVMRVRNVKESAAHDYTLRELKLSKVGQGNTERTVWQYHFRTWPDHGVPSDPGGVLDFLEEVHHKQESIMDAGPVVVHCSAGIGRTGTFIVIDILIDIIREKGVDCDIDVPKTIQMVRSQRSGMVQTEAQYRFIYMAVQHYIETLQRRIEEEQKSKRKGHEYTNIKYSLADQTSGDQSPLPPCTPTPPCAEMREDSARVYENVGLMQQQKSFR

LYP = target: T3, LYP (Homo sapiens, UniProt Q9Y2R2); experiment: PTP panel inhibition assay, LYP; settings: at 100 µM
T3 sequence (Q9Y2R2 1-807): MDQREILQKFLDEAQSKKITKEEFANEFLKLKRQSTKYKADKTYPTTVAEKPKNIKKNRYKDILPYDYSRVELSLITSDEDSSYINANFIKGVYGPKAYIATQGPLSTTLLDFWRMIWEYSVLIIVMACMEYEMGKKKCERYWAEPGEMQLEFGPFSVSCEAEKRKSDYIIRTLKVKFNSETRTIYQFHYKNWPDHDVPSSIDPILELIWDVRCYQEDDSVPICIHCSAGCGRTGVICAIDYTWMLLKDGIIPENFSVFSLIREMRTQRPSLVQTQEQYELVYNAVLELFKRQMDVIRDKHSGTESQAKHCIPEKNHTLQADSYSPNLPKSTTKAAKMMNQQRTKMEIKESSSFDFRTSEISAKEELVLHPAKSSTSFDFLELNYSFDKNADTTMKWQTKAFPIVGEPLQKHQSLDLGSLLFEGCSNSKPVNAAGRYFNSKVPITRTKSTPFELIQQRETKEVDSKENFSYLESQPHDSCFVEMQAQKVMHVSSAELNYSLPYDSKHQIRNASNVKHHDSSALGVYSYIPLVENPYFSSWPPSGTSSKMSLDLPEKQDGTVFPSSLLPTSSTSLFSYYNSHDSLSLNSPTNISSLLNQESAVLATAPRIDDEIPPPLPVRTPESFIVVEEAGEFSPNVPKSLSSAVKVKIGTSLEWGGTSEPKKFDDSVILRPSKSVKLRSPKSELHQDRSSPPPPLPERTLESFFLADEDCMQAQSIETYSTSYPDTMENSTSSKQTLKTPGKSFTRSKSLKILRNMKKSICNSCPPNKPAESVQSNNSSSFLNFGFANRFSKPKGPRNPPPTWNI

SHP2 [2] = target: T2, SHP2; experiment: steady-state enzyme kinetic analysis of SHP2 inhibition; settings: C21 at 0, 4, 8 and 12 µM
PTPα = PTPα (Homo sapiens, UniProt P18433); experiment: PTP panel inhibition assay, PTPα; settings: at 100 µM
PTPα, sequence (P18433 20-802): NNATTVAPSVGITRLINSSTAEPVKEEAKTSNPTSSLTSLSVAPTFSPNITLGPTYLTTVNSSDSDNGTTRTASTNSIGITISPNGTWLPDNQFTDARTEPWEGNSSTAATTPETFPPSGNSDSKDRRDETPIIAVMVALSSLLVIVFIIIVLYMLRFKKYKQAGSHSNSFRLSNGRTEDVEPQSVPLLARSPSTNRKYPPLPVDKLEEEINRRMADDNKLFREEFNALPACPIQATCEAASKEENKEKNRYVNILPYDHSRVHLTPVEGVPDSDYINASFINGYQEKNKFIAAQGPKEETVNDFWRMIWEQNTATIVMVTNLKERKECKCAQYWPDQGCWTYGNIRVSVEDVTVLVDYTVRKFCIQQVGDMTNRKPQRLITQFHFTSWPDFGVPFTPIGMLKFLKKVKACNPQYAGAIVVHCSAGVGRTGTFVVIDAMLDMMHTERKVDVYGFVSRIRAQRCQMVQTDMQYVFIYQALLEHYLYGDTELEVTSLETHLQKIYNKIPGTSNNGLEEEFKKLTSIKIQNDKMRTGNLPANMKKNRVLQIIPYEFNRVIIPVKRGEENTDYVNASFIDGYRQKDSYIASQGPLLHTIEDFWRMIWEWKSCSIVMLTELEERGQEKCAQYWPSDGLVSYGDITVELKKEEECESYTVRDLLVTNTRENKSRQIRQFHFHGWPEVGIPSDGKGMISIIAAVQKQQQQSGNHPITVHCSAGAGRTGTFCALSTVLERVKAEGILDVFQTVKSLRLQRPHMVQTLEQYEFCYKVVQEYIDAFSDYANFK

VHR = VHR (Homo sapiens, UniProt P51452); experiment: PTP panel inhibition assay, VHR; settings: at 100 µM
VHR, sequence (P51452 whole entry, species assumed): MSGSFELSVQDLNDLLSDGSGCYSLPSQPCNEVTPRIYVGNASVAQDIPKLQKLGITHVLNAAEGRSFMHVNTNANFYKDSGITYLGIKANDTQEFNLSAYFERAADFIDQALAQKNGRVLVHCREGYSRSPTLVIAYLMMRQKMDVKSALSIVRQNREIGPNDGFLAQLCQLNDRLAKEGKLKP

Cdc14 = experiment: PTP panel inhibition assay, Cdc14; settings: at 100 µM

CC(=O)N(c1ccc2oc3c(c2c1)CCCC3)S(=O)(=O)c1ccc(C(=O)O)cc1 [Compound C18]
inhibition against PTP1B compared with SHP2 (in words) (PTP1B): better inhibition | inhibition against SHP1 compared with SHP2 (in words) (SHP1): better inhibition | concentration dependence of SHP2 inhibition (SHP2 [1]): concentration-dependent inhibition | inhibitory activity against SHP2 (in words) (SHP2 [1]): only moderate inhibitory activity

Cc1cc(S(=O)(=O)O)ccc1N1N=C(C(=O)O)CC1=O [Compound C21-A1]
fold decreased SHP2 inhibition (SHP2 [1]; relative to C21): ~ 5 fold

O=C(O)C1=NN(c2ccc(S(=O)(=O)O)cc2)C(=O)C1 [Compound C21-A2]
fold decreased affinity for SHP2 (SHP2 [1]; relative to C21-A1): ~ 4 fold

O=C(O)C1=NN(c2ccccc2)C(=O)C1 [Compound C21-A3]
IC50 (SHP2 [1]): > 1000 µM | SHP2 inhibition at 1 mM (SHP2 [1]): failed to inhibit SHP2

CC1=NN(c2ccc(S(=O)(=O)O)cc2C)C(=O)C1 [Compound C21-A4]
IC50 (SHP2 [1]): > 1000 µM | SHP2 inhibition at 1 mM (SHP2 [1]): failed to inhibit SHP2

Cc1cc(S(=O)(=O)O)c(S(=O)(=O)O)cc1N1N=C(C(=O)O)CC1=O [Compound C21]
inhibition of LYP (LYP): almost no inhibition | mode of inhibition against SHP2 (SHP2 [2]): reversible and competitive | inhibition of PTPα (PTPα): almost no inhibition | inhibition of VHR (VHR): almost no inhibition | concentration dependence of SHP2 inhibition (SHP2 [1]): concentration-dependent inhibition | inhibition of Cdc14 (Cdc14): almost no inhibition

CC(=O)c1c(C)oc2ccc(NS(=O)(=O)c3cccc(C(=O)O)c3)cc12 [Compound C30]
inhibition against PTP1B compared with SHP2 (in words) (PTP1B): better inhibition | inhibition against SHP1 compared with SHP2 (in words) (SHP1): better inhibition | concentration dependence of SHP2 inhibition (SHP2 [1]): concentration-dependent inhibition | inhibitory activity against SHP2 (in words) (SHP2 [1]): only moderate inhibitory activity
